From patent publication US8741859B2, “Fungicide composition for agriculture and horticulture and method for preventing plant diseases” (Ishihara Sangyo Kaisha, Ltd, priority 2008, dated 2014)

What was measured:
[1] = test system: Pythium spinosum; test: Inhibition test of mycelial growth against rice seedling blight (Pythium spinosum); format: cell-based; settings: Globisporangium spinosum, 48 h, PDA plate, 2 days, 20° C., read-out: Inhibition Rate of Mycelial Growth against Pythium spinosum (%)
Method: Inhibition Test of Mycelial Growth Against Rice Seedling Blight (Pythium spinosum)
(§1) The strain to use for a test was precultured on a PSA plate for two days at 20° C. Then, the peripheral portion of the grown mycelia was cut out with a cork borer (4 mm in diameter) to put on PDA plate which was prepared to contain an active ingredient at a predetermined concentration by diluting. After culturing for two days at 20° C., a diameter of the mycelial colony was measured to obtain an inhibition rate of mycelial growth.
(§2) In addition, a theoretical value of the inhibition rate was calculated using Colby's formula and listed in parentheses of Table 1.

[2] = test system: Pythium graminicola; test: Inhibition test of mycelial growth against turf Pythium blight (Pythium graminicola); format: cell-based
Method: as §1, §2
Inhibition Test of Mycelial Growth Against Turf Pythium Blight (Pythium graminicola)
The inhibition rate of mycelial growth was obtained by measuring mycelial growth in the same manner as Test Example 1. In addition, the mean mycelial growth of non-treated group was 46.5 mm.

Question: What does the source list for `Cc1ccc(-c2c(Cl)nc(C#N)n2S(=O)(=O)N(C)C)cc1` [Cyazofamid, 4-chloro-2-cyano-1-dimethylsulfamoyl-5-(4-methylphenyl)imidazole]?
Answer: inhibition at 1 ppm ([1]; Cyazofamid 1.0 ppm alone (polyoxin 0 ppm)): 68%; inhibition at 10 ppm ([1]; Cyazofamid 10.0 ppm alone (polyoxin 0 ppm)): 54%; Inhibition Rate of Mycelial Growth (%) ([2]; Cyazofamid 1 ppm alone (agent 0 ppm)): 48%; Inhibition Rate of Mycelial Growth (%) ([2]; Cyazofamid 10 ppm alone (agent 0 ppm)): 47%; Inhibition Rate of Mycelial Growth (%) ([2]; Cyazofamid 100 ppm alone (agent 0 ppm)): 68%
